Read-outs that look alike come from different tables or passages of the source.
Legend:
K. pneumoniae CQ1942 = experiment: Broth microdilution MIC, glycosides with or without polymyxins; assay type: cell-based, Klebsiella pneumoniae; details: for MIC: Klebsiella pneumoniae, CQ1942
E. coli NCTC 13846 = experiment: Broth microdilution MIC/MBC, glycosides with or without polymyxins; assay type: cell-based, Escherichia coli; details: strain B
E. cloacae CQ1941 = experiment: as above; assay type: cell-based; details: for MIC: Enterobacter cloacae, CQ1941
[1] = tested on: Bacillus anthracis (Sterne, ovine and pathogenic forms), Enterococcus faecalis and Bacillus cereus; details: Gram-positive bacteria; cited from earlier work
HEK-293T cells = experiment: Resazurin cell viability assay (cytotoxicity); assay type: cell-based, human; details: Homo sapiens, HEK-293T, 72 h, read-out: IC50
Method in brief: (§1)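 HEK-293T and Caco-2 cells (1.5 × 10^4/well, RPMI 1640 with 10% FBS) exposed 72 h at 37 °C to glycosides at final 100 to 10 µM, alone or with PMB or colistin at final 0.5, 0.25 or 0.125 µg/mL; max DMSO 0.33%. Resazurin added 4 h, read 570/600 nm; IC50 from dose-response fits, mean ± SD of three replicates.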

Caco-2 cells = experiment: Resazurin cell viability assay (cytotoxicity); assay type: cell-based, human; details: Homo sapiens, Caco-2, 72 h, read-out: IC50
Method in brief: as §1

K. pneumoniae CQ4921 = experiment: Broth microdilution MIC/MBC, glycosides with or without polymyxins; assay type: cell-based, Klebsiella pneumoniae; details: for MIC: Klebsiella pneumoniae, CQ4921
[2] = alone, read-out: MICA (MIC of each compound individually)
[3] = combination with the lowest FICI
[4] = compound + colistin, lowest FICI
[5] = tested alone (no polymyxin adjuvant)

With `CCCCCCCCCCCCO[C@@H]1C[C@@H](O)[C@H](O)[C@@H](CO)O1` [Compound 4, dodecyl 2-deoxy-α-D-arabino-hexopyranoside] the “MIC of colistin in combination with the compound” value (shortened to “MIC … with the compound”) (K. pneumoniae CQ1942; Cpd conc. 0.4 μg/mL, strain E) was 0.5 µg/mL, the “MIC … with the compound” value (K. pneumoniae CQ1942; Cpd conc. 0.8 μg/mL, strain E) was 0.5 µg/mL and the “MIC … with the compound” value (K. pneumoniae CQ1942; Cpd conc. 3.125 μg/mL, strain E) was 0.5 µg/mL. For the same compound, the “MIC … with the compound” value (K. pneumoniae CQ1942; Cpd conc. 6.25 μg/mL, strain E) was 0.5 µg/mL, the “MIC … with the compound” value (K. pneumoniae CQ1942; Cpd conc. 12.5 μg/mL, strain E) was 0.5 µg/mL and the “MIC … with the compound” value (K. pneumoniae CQ1942; Cpd conc. […], strain E) was 0.5 µg/mL. The MIC (K. pneumoniae CQ1942; agent alone, no adjuvant (polymyxin conc. 0), strain E, read-out: MIC) was > 100 µg/mL, the MIC (K. pneumoniae CQ1942; [2]) was > 100 µg/mL and the “MIC of compound in combination with PMB” value (K. pneumoniae CQ1942; PMB 0.25 μg/mL, strain E) was > 100 µg/mL. For the same compound, the “MIC of compound in combination with PMB” value (K. pneumoniae CQ1942; PMB 0.5 μg/mL, strain E) was 1.6 µg/mL, the “MIC of compound in combination with colistin” value (K. pneumoniae CQ1942; colistin 0.25 μg/mL, strain E) was > 100 µg/mL and the “MIC of compound in combination with colistin” value (K. pneumoniae CQ1942; colistin 0.5 μg/mL, strain E) was ≤ 0.1 µg/mL. For the same compound, the “MICA(A + B) (MIC of compound in combination with colistin)” value (“MICA(A + B)” for short) (K. pneumoniae CQ1942; [3]) was 0.4 µg/mL, the “MICB(A + B) (MIC of colistin in combination with compound)” value (from here on “MICB(A + B)”) (K. pneumoniae CQ1942; [3]) was 0.5 µg/mL and the “Interpretation (of FICI)” value (K. pneumoniae CQ1942; compound + colistin) was “Indifferent (1.0 to 4.0 were indifferent)”. The FICI (K. pneumoniae CQ1942; [4]) was 1.002, the “MIC … with the compound” value (E. coli NCTC 13846; Cpd conc. 0.4 μg/mL) was > 0.5 µg/mL and the “MIC … with the compound” value (E. coli NCTC 13846; Cpd conc. 0.8 μg/mL) was > 0.5 µg/mL. For the same compound, the “MIC … with the compound” value (E. coli NCTC 13846; Cpd conc. 3.125 μg/mL) was > 0.5 µg/mL, the “MIC … with the compound” value (E. coli NCTC 13846; Cpd conc. 6.25 μg/mL) was > 0.5 µg/mL and the “MIC … with the compound” value (E. coli NCTC 13846; Cpd conc. 12.5 μg/mL) was > 0.5 µg/mL. For the same compound, the “MIC … with the compound” value (E. coli NCTC 13846; Cpd conc. […]) was > 0.5 µg/mL, the MIC (E. coli NCTC 13846; Escherichia coli, NCTC13846, agent alone, no adjuvant (polymyxin conc. 0), read-out: MIC) was > 100 µg/mL and the “MIC of compound in combination with PMB” value (E. coli NCTC 13846; PMB 0.25 μg/mL) was > 100 µg/mL. For the same compound, the “MIC of compound in combination with PMB” value (E. coli NCTC 13846; PMB 0.5 μg/mL) was > 100 µg/mL, the “MIC of compound in combination with colistin” value (E. coli NCTC 13846; colistin 0.25 μg/mL) was > 100 µg/mL and the “MIC of compound in combination with colistin” value (E. coli NCTC 13846; colistin 0.5 μg/mL) was > 100 µg/mL. The “MIC … with the compound” value (E. cloacae CQ1941; Cpd conc. 0.4 μg/mL, strain D) was 0.5 µg/mL, the “MIC … with the compound” value (E. cloacae CQ1941; Cpd conc. 0.8 μg/mL, strain D) was 0.5 µg/mL and the “MIC … with the compound” value (E. cloacae CQ1941; Cpd conc. 3.125 μg/mL, strain D) was 0.5 µg/mL. For the same compound, the “MIC … with the compound” value (E. cloacae CQ1941; Cpd conc. 6.25 μg/mL, strain D) was 0.5 µg/mL, the “MIC … with the compound” value (E. cloacae CQ1941; Cpd conc. 12.5 μg/mL, strain D) was 0.5 µg/mL and the “MIC … with the compound” value (E. cloacae CQ1941; Cpd conc. […], strain D) was 0.5 µg/mL. For the same compound, the MIC (E. cloacae CQ1941; agent alone, no adjuvant (polymyxin conc. 0), strain D, read-out: MIC) was > 100 µg/mL, the MIC (E. cloacae CQ1941; [2]) was > 100 µg/mL and the “MIC of compound in combination with PMB” value (E. cloacae CQ1941; PMB 0.25 μg/mL, strain D) was > 100 µg/mL. The “MIC of compound in combination with PMB” value (E. cloacae CQ1941; PMB 0.5 μg/mL, strain D) was ≤ 0.1 µg/mL, the “MIC of compound in combination with colistin” value (E. cloacae CQ1941; colistin 0.25 μg/mL, strain D) was > 100 µg/mL and the “MIC of compound in combination with colistin” value (E. cloacae CQ1941; colistin 0.5 μg/mL, strain D) was ≤ 0.1 µg/mL. For the same compound, the “MICA(A + B)” value (E. cloacae CQ1941; [3]) was 0.4 µg/mL, the “MICB(A + B)” value (E. cloacae CQ1941; [3]) was 0.5 µg/mL and the “Interpretation (of FICI)” value (E. cloacae CQ1941; compound + colistin) was “Indifferent (1.0 to 4.0 were indifferent)”. For the same compound, the FICI (E. cloacae CQ1941; [4]) was 1.002, the MIC [1] was 12 to 386 µM and the IC50 (HEK-293T cells; Colistin 0.5 μg/mL) was > 100 µM. For the same compound, the IC50 (HEK-293T cells; No polymyxin) was > 100 µM, the IC50 (HEK-293T cells; PMB 0.5 μg/mL) was > 100 µM and the IC50 (HEK-293T cells; [5]) was > 33 µg/mL. The IC50 (Caco-2 cells; Colistin 0.5 μg/mL) was > 100 µM, the IC50 (Caco-2 cells; No polymyxin) was > 100 µM and the IC50 (Caco-2 cells; [5]) was > 33 µg/mL. For the same compound, the “MIC … with the compound” value (K. pneumoniae CQ4921; Cpd conc. 0.4 μg/mL, strain C) was 0.5 µg/mL, the “MIC … with the compound” value (K. pneumoniae CQ4921; Cpd conc. 0.8 μg/mL, strain C) was 0.5 µg/mL and the “MIC … with the compound” value (K. pneumoniae CQ4921; Cpd conc. 3.125 μg/mL, strain C) was 0.5 µg/mL. For the same compound, the “MIC … with the compound” value (K. pneumoniae CQ4921; Cpd conc. 6.25 μg/mL, strain C) was 0.5 µg/mL, the “MIC … with the compound” value (K. pneumoniae CQ4921; Cpd conc. 12.5 μg/mL, strain C) was 0.5 µg/mL and the “MIC … with the compound” value (K. pneumoniae CQ4921; Cpd conc. […], strain C) was 0.5 µg/mL. The MIC (K. pneumoniae CQ4921; agent alone, no adjuvant (polymyxin conc. 0), strain C, read-out: MIC) was > 100 µg/mL, the MIC (K. pneumoniae CQ4921; [2]) was > 100 µg/mL and the “MIC of compound in combination with PMB” value (K. pneumoniae CQ4921; PMB 0.25 μg/mL, strain C) was > 100 µg/mL. The “MIC of compound in combination with PMB” value (K. pneumoniae CQ4921; PMB 0.5 μg/mL, strain C) was 1.6 µg/mL, the “MIC of compound in combination with colistin” value (K. pneumoniae CQ4921; colistin 0.25 μg/mL, strain C) was > 100 µg/mL and the “MIC of compound in combination with colistin” value (K. pneumoniae CQ4921; colistin 0.5 μg/mL, strain C) was ≤ 0.1 µg/mL. For the same compound, the “MICA(A + B)” value (K. pneumoniae CQ4921; [3]) was 0.4 µg/mL, the “MICB(A + B)” value (K. pneumoniae CQ4921; [3]) was 0.5 µg/mL and the “Interpretation (of FICI)” value (K. pneumoniae CQ4921; compound + colistin) was “Indifferent (1.0 to 4.0 were indifferent)”. It also gave an FICI (K. pneumoniae CQ4921; [4]) of 1.002.

— paper PMC10817917, “Alkyl deoxyglycoside-polymyxin combinations against critical priority carbapenem-resistant gram-negative bacteria” (Scientific Reports, 2024)
